# Laboratory results from patent publication US20140045824A1, “METHOD FOR PRODUCING COMPLEX CRYSTAL AND METHOD FOR SCREENING COMPLEX CRYSTAL” (priority 2011, published 2014).
# Tests used:
# Format in all cases: physicochemical
# [1] = Cocrystal screening by heat melting 1-menthol (Example 1), powder X-ray diffraction and thermal analysis; parameters: key to Cocrystal formation, Example 1: A cocrystal was completely formed.; B: A mixture of a cocrystal and the host compound or guest compound was formed.; C: A cocrystal was not formed (a mixture of the host compound and the guest compound was formed); settings: host theophylline, equimolar guest, 1-menthol added, 4 hours at 80° C.
# Method: Theophylline and a guest compound shown in Table 1 in an equimolar amount to theophylline were weighed and mixed using an agate mortar. […] Thereafter, the obtained mixed powder of theophylline, the guest compound, and 1-menthol was heated for 4 hours in an oven at 80° C., and the obtained solid was subjected to powder X-ray diffraction measurement and thermal analysis.
# [2] = Cocrystal screening by co-grinding method (Comparative Example 2); parameters: key: A cocrystal was completely formed.; B: A mixture of a cocrystal and the host compound or guest compound was formed.; C: A cocrystal was not formed (a mixture of the host compound and the guest compound was formed); settings: host theophylline, equimolar guest, mixed/ground in agate mortar
# Method: (§1) 3 mg (0.0167 mmoles) of theophylline and a guest compound shown in Table 1 in an equimolar amount (0.0167 mmoles) to theophylline were weighed and mixed using an agate mortar. At that time, particles having a large size to an extent that they could be distinguished through visual inspection were grinded on the agate mortar. The obtained solids were subjected to powder X-ray diffraction measurement and thermal analysis.
# [3] = Cocrystal screening by heating method without menthol (Comparative Example 3); parameters: key: A cocrystal was completely formed.; B: A mixture of a cocrystal and the host compound or guest compound was formed.; C: A cocrystal was not formed (a mixture of the host compound and the guest compound was formed); settings: host theophylline, equimolar guest, no menthol, 4 hours at 80° C.
# Method: 3 mg (0.0167 mmoles) of theophylline and a guest compound shown in Table 1 in an equimolar amount (0.0167 mmoles) to theophylline were weighed and mixed using an agate mortar. At that time, particles having a large size to an extent that they could be distinguished through visual inspection were grinded on the agate mortar. 10 mg of this mixed powder was weighed and put into a test tube, followed by heating for 4 hours in an oven at 80° C. The obtained solid was subjected to powder X-ray diffraction measurement and thermal analysis.
# [4] = Cocrystal screening by heat melting 1-menthol (Example 2), powder X-ray diffraction and thermal analysis; parameters: key: A cocrystal was completely formed.; B: A mixture of a cocrystal and the host compound or guest compound was formed.; C: A cocrystal was not formed (a mixture of the host compound and the guest compound was formed); settings: host carbamazepine, equimolar guest, 1-menthol added, 10 hours at 80° C.
# Method: Carbamazepine and a guest compound shown in Table 4 in an equimolar amount to carbamazepine were weighed and mixed using an agate mortar. […] Thereafter, the obtained mixed powder of carbamazepine, the guest compound, and 1-menthol was heated for 10 hours in an oven at 80° C., and the obtained solids were subjected to powder X-ray diffraction measurement and thermal analysis.
# [5] = Cocrystal screening by slurry method (Comparative Examples 4-1 to 4-6), powder X-ray diffraction; parameters: key: A cocrystal was completely formed.; B: A mixture of a cocrystal and the host compound or guest compound was formed.; C: A cocrystal was not formed (a mixture of the host compound and the guest compound was formed); settings: host carbamazepine; for Cocrystal formation, Comparative Example 4-6: slurry in acetone; for Cocrystal formation, Comparative Example 4-6 / Cocrystal formation, Comparative Example 4-2 / Cocrystal formation, Comparative Example 4-5 / Cocrystal formation, Comparative Example 4-4 / Cocrystal formation, Comparative Example 4-1: room temperature 7 days; for Cocrystal formation, Comparative Example 4-2: slurry in ethanol; for Cocrystal formation, Comparative Example 4-5: slurry in ethyl acetate; for Cocrystal formation, Comparative Example 4-4: slurry in toluene; for Cocrystal formation, Comparative Example 4-1: slurry in water; for Cocrystal formation, Comparative Example 4*: slurry summary: A if a cocrystal was formed in any one of Comparative Examples 4-1 to 4-6
# Method: 3 mg (0.0127 mmoles) of carbamazepine and a guest compound shown in Table 4 in an equimolar amount (0.0127 mmoles) to carbamazepine were weighed and put into a glass container, to which was then added 60 μL of water. These were shaken at room temperature for 7 days, and the obtained residues were subjected to powder X-ray diffraction measurement. 3 mg (0.0127 mmoles) of carbamazepine and a guest compound shown in Table 4 in an equimolar amount (0.0127 mmoles) to carbamazepine were weighed and put into a glass container, to which was then added 60 μL of ethanol. These were shaken at room temperature for 7 days, and the obtained residues were subjected to powder X-ray diffraction measurement. 3 mg (0.0127 mmoles) of carbamazepine and a guest compound shown in Table 4 in an equimolar amount (0.0127 mmoles) to carbamazepine were weighed and put into a glass container, to which was then added 60 μL of tetrahydrofuran. These were shaken at room temperature for 7 days, and the obtained residues were subjected to powder X-ray diffraction measurement. 3 mg (0.0127 mmoles) of carbamazepine and a guest compound shown in Table 4 in an equimolar amount (0.0127 mmoles) to carbamazepine were weighed and put into a glass container, to which was then added 60 μL of toluene. These were shaken at room temperature for 7 days, and the obtained residues were subjected to powder X-ray diffraction measurement. 3 mg (0.0127 mmoles) of carbamazepine and a guest compound shown in Table 4 in an equimolar amount (0.0127 mmoles) to carbamazepine were weighed and put into a glass container, to which was then added 60 μL of ethyl acetate. These were shaken at room temperature for 7 days, and the obtained residues were subjected to powder X-ray diffraction measurement. 3 mg (0.0127 mmoles) of carbamazepine and a guest compound shown in Table 4 in an equimolar amount (0.0127 mmoles) to carbamazepine were weighed and put into a glass container, to which was then added 60 μL of acetone. These were shaken at room temperature for 7 days, and the obtained residues were subjected to powder X-ray diffraction measurement.
# [6] = Cocrystal screening by mixing and grinding method (Comparative Example 5); parameters: key: A cocrystal was completely formed.; B: A mixture of a cocrystal and the host compound or guest compound was formed.; C: A cocrystal was not formed (a mixture of the host compound and the guest compound was formed); settings: host carbamazepine, equimolar guest, mixed/ground in agate mortar
# Description: as §1, with “Carbamazepine” for “3 mg (0.0167 mmoles) of theophylline”, “4” for “1”, “amount” for “amount (0.0167 mmoles)”, “carbamazepine” for “theophylline”
# [7] = Cocrystal screening by heating method without menthol (Comparative Example 6); parameters: key: A cocrystal was completely formed.; B: A mixture of a cocrystal and the host compound or guest compound was formed.; C: A cocrystal was not formed (a mixture of the host compound and the guest compound was formed); settings: host carbamazepine, equimolar guest, no menthol, 4 hours at 80° C.
# Method: Carbamazepine and a guest compound shown in Table 4 in an equimolar amount to carbamazepine were weighed and mixed using an agate mortar. At that time, particles having a large size to an extent that they could be distinguished through visual inspection were grinded on the agate mortar. 10 mg of this mixed powder was weighed and put into a test tube and heated for 4 hours in an oven at 80° C., and the obtained solids were subjected to powder X-ray diffraction measurement and thermal analysis.
"Cocrystal formation, Example 1 [1]","Cocrystal formation, Comparative Example 2 [2]","Cocrystal formation, Comparative Example 3 [3]","Cocrystal formation, Example 2 [4]","Cocrystal formation, Comparative Example 4-6 [5]","Cocrystal formation, Comparative Example 4-2 [5]","Cocrystal formation, Comparative Example 4-5 [5]","Cocrystal formation, Comparative Example 4-4 [5]","Cocrystal formation, Comparative Example 4-1 [5]","Cocrystal formation, Comparative Example 4* [5]","Cocrystal formation, Comparative Example 5 [6]","Cocrystal formation, Comparative Example 6 [7]",SMILES
B,B,C,A,C,C,A,B,C,A,C,B,O=C(O)C(=O)O [Oxalic acid]
A,C,C,A,B,A,A,A,C,A,C,C,O=C1NS(=O)(=O)c2ccccc21 [Saccharin]
B,C,B,A,C,C,C,C,C,C,C,B,C/C=C/C=C/C(=O)O [Sorbic acid]
